The text below walks through data of patent publication US20250236611A1, “PYRAZOLE COMPOUNDS AND USES THEREOF” (ALCON INC., priority 2021, published 2025).

Holding throughout (type): biochemical
What all share (details): 10 nM JAK enzyme, 800 nM Abl peptide, room temperature 75 min

One test addresses JAK1 (Homo sapiens, UniProt P23458). Nature of the test: JAK assay (KINASE-GLO luminescent kinase assay), JAK1. Here is the method: (§1) All compounds were initially prepared as 10 mM stocks in anhydrous dimethylsulfoxide (DMSO). A 20 μL aliquot of the 10 mM solutions was transferred to individual wells in column 1 of a 96-well polypropylene microtiter plate (Corning #3363) and diluted with DMSO to give a final compound concentration of 4 mM. Test compounds were then serially diluted 1:5 in DMSO for an 11-point concentration response and further diluted in the assay buffer bringing all compound concentrations to a final range of 100 μM to 10 pM in 2.5% DMSO. The assay was performed in white 96-well, flat-bottom, half-area, non-binding assay plate (Corning #3642) in assay buffer consisting of 20 mM HEPES (pH 7.5), 10 mM MgCl2*6H2O, 100 μM sodium orthovanadate, 0.05% CHAPS and 0.1% bovine serum albumin. A 10 μL aliquot of compound from each well of the intermediate dilution plate and 20 μL of a 2×JAK substrate/enzyme solution containing acceptor substrate (800 nM Abl peptide), JAK enzyme (10 nM JAK1, JAK2, JAK3, or TYK2), and 1,4-Dithiothreitol (DTT, 2 μM) were added to all wells. The reaction was initiated by the addition of 10 μL of 4× stock solution ATP (2 μM). Reactions were thoroughly mixed manually, covered and allowed to incubate at room temperature for 75 min. Protein kinase activity was quantitated using Promega's KINASE-GLO™ luminescent Kinase Assay Kit according to the manufacturer's directions. ATP concentrations remaining in Test wells following the termination of the enzymatic reaction were compared against control wells containing equivalent amounts of DMSO containing no inhibitor (CTRL). […] Percent of Control (POC) values were determined for each concentration of compound tested according to the equation:
(§2) [formula] • IC50 values were calculated using the following 4-parameter logistic curve-fitting algorithm:
(§3) [formula] • IC50 values were converted to Ki values using the Cheng-Prusoff Equation: […]

Another test addresses JAK2 (Homo sapiens, UniProt O60674). Nature of the test: JAK assay (KINASE-GLO luminescent kinase assay), JAK2. Here is the method:
as §1, §2, §3

For another test, the target named is T1, JAK3 (Homo sapiens, UniProt P52333).
T1 sequence (P52333 1-1124): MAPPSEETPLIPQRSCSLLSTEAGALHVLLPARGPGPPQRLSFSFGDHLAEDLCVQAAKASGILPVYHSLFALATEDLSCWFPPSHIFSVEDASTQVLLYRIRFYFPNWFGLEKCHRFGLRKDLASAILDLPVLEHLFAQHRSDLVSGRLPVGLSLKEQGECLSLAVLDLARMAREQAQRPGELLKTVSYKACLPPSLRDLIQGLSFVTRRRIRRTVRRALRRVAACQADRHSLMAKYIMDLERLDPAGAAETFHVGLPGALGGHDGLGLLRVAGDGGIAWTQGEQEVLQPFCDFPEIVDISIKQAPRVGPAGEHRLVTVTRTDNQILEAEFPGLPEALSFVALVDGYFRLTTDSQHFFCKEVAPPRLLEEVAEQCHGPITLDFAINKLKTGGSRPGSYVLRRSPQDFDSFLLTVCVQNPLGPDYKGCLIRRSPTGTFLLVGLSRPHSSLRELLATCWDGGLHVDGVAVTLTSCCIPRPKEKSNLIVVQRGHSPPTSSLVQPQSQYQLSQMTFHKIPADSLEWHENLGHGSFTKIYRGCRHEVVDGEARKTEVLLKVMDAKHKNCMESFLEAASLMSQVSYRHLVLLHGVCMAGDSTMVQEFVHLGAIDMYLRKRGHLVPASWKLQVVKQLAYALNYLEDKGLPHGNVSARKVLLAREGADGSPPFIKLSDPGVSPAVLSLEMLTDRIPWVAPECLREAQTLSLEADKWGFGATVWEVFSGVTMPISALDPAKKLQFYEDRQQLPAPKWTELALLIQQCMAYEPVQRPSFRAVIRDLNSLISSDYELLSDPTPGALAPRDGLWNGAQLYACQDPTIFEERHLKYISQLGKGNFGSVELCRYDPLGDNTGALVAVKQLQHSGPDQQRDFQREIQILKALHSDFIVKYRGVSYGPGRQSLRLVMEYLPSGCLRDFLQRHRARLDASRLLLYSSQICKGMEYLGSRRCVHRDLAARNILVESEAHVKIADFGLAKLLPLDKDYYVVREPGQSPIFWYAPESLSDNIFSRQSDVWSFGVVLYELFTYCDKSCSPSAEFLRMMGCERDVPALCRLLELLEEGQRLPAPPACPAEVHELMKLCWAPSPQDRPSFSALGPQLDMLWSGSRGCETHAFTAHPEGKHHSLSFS
Briefly: JAK assay (KINASE-GLO luminescent kinase assay), JAK3. Here is the method:
as §1, §2, §3

In the next test the target is TYK2 (Homo sapiens, UniProt P29597). Nature of the test: JAK assay (KINASE-GLO luminescent kinase assay), TYK2. Here is the method: as §1, with “A 20 μL aliquot of the 10 mM solutions was transferred to individual wells in column 1 of a 96-well polypropylene microtiter plate (Corning #3363) and diluted with DMSO to give a final compound concentration of 4 mM.” left out
Chain of TYK2 (P29597 whole entry): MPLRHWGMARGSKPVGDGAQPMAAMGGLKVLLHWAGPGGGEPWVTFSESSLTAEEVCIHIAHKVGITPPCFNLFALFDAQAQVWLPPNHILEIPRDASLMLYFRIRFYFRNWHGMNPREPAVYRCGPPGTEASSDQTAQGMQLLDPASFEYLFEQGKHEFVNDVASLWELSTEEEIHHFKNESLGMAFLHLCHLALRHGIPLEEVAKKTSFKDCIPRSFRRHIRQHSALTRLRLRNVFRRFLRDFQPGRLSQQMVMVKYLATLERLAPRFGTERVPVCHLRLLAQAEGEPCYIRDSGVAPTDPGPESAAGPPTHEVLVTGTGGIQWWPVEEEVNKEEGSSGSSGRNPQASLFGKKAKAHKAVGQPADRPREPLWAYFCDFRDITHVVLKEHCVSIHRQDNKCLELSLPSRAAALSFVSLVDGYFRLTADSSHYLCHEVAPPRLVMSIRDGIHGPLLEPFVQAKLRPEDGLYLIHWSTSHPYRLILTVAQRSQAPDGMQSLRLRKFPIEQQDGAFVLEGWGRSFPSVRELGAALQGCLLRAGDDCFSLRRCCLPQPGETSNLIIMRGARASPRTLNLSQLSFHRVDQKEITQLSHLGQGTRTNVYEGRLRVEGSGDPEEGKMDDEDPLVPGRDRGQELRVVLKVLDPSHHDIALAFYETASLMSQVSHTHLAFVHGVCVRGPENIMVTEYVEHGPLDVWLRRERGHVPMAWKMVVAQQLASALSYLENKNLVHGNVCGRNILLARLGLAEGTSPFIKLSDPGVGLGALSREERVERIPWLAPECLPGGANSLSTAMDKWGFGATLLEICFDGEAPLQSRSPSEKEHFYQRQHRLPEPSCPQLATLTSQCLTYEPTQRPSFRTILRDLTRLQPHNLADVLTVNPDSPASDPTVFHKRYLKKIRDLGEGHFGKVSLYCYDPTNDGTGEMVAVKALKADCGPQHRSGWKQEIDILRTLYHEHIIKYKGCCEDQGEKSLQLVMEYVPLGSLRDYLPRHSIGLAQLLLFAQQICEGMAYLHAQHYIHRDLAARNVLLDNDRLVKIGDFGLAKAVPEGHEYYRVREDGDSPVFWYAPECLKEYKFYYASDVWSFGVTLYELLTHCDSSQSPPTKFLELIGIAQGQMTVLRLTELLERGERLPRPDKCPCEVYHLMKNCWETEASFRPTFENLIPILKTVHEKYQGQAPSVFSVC
as §2, §3

Chain of JAK1 (P23458 whole entry): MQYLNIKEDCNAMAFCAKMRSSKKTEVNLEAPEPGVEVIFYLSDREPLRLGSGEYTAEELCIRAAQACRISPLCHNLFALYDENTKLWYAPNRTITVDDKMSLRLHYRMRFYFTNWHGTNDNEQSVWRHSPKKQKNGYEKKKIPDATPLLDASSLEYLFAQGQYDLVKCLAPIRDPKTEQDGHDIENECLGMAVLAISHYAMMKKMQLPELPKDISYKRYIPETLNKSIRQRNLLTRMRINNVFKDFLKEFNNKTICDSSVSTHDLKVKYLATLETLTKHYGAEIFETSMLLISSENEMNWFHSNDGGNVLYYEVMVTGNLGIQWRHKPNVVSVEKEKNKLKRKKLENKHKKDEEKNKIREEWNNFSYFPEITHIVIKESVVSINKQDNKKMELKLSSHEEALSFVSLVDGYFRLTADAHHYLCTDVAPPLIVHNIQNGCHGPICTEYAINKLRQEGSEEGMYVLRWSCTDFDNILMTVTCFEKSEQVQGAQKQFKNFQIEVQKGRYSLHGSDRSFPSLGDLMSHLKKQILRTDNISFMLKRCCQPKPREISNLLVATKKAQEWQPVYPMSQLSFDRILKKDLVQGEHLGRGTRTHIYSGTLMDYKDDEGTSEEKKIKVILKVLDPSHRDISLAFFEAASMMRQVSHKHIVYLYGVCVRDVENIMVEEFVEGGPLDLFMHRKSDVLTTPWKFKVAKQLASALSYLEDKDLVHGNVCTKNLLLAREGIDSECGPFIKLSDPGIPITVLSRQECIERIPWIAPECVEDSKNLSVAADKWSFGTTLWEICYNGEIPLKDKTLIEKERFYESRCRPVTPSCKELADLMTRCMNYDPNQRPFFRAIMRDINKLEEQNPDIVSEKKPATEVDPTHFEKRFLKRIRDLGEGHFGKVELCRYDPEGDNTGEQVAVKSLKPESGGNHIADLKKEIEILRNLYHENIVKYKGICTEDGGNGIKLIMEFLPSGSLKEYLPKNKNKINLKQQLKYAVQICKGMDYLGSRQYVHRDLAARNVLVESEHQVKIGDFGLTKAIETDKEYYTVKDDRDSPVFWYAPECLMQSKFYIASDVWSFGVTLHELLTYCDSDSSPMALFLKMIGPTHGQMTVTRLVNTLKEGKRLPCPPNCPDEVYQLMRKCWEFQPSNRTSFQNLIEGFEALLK
Chain of JAK2 (O60674 whole entry): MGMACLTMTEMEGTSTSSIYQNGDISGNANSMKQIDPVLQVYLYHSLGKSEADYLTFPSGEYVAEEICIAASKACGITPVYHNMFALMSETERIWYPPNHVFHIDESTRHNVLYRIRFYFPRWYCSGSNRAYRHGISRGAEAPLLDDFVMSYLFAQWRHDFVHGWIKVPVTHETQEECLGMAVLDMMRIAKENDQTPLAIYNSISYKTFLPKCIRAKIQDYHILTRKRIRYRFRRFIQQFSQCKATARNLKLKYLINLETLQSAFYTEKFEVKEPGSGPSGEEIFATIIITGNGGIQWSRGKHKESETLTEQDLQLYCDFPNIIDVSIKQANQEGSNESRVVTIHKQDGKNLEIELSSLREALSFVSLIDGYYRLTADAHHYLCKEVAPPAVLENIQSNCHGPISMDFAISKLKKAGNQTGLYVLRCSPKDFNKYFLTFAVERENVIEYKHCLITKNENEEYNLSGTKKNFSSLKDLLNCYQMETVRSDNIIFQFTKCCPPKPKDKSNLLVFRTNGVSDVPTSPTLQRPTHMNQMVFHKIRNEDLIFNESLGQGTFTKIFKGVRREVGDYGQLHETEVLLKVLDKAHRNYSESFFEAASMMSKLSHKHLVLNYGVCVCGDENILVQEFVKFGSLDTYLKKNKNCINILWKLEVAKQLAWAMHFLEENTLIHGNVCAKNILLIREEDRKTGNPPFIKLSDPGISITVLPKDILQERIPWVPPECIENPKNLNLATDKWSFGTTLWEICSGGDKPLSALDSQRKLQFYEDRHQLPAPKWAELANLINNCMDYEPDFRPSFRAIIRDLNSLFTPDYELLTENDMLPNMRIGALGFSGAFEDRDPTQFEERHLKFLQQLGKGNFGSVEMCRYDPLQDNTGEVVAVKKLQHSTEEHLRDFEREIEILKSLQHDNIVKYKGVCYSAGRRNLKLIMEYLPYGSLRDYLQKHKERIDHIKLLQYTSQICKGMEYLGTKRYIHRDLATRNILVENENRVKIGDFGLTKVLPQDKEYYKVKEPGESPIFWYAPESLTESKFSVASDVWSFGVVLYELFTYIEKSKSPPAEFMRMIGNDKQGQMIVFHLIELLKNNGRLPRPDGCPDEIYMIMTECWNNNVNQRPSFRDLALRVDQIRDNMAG

On to `N#CCCn1cc(-c2nc(Nc3ccc(CCO)cc3)ncc2Cl)cn1` [OCCC1═CC═C(NC2═NC(═C], for which the IC50 against JAK1 was less than 100 nM; at JAK2, less than 10 nM; against JAK3, less than 100 nM; at TYK2, less than 10 nM.
Take `CN1CCN(c2ccc(Nc3ncc(Cl)c(-c4cnn(CC5(C#N)CC5)c4)n3)cn2)CC1` [CN1CCN(CC1)C2═NC═C(NC3═NC(═C]: the 50% inhibitory concentration (IC50) on JAK1 was less than 100000 nM; against JAK2, less than 1000 nM; against JAK3, less than 100000 nM; on TYK2, less than 100000 nM.
Turning to `Clc1cnc(NC23CC(C2)C3)nc1-c1cnn(Cc2cccs2)c1` [ClC1═C(N═C(NC23CC(C2)C3)N═C1)C4═C[N]], the IC50 against JAK1 was more than 50000 nM; on JAK2, more than 50000 nM; on JAK3, less than 100000 nM; against TYK2, more than 50000 nM.
For the molecule `Cc1cnc(NCCN2CCOCC2)nc1-c1cnn(CCC#N)c1` [CC1═C(N═C(NCCN2CCOCC2)N═C1)C3═C[N]], the half-inhibitory concentration (IC50) against JAK1 was less than 100000 nM; against JAK2 it was less than 100000 nM; at JAK3, more than 50000 nM.
Consider `FC(F)C1(Cn2cc(-c3nc(Nc4ccc5cnoc5c4)ncc3Cl)cn2)COC1` [FC(F)C1(COC1)C[N]2C═C(C═N2)C3═C], for which the IC50 at JAK1 was less than 1000 nM; against JAK2, less than 10 nM; on JAK3 it was less than 100 nM; on TYK2, less than 1000 nM.
As for `Cc1cnc(Nc2cc(COC(=O)CCN3CCOCC3)ns2)nc1-c1cnn(CC2(CF)CC2)c1` [CC1═C(N═C(NC2═CC(═NS2)COC], the IC50 was less than 100 nM against JAK1, less than 10 nM against JAK2, less than 10 nM on JAK3 and less than 10 nM on TYK2.
Consider `Cn1ccc(Nc2ncc(Cl)c(-c3cnn(CCC#N)c3)n2)n1` [C[N]1C═CC(═N1)NC2═NC(═C], for which the IC50 against JAK1 is less than 1000 nM; on JAK2, less than 10 nM; on JAK3, less than 1000 nM; at TYK2, less than 1000 nM.
`Clc1cnc(Nc2cccc(CN3CCC3)c2)nc1` [ClC1═C(N═C(NC2═CC(═CC═C2)CN3CCC3)N═C1)]: the IC50 was less than 100 nM on JAK1, less than 10 nM against JAK2, less than 10 nM against JAK3 and less than 10 nM against TYK2.
Consider `N#CCCn1cc(-c2nc(Nc3ccsc3)ncc2Cl)cn1` [ClC1═C(N═C(NC2═CSC═C2)N═C1)C3═C[N]], for which the IC50 against JAK1, at JAK2, against JAK3 and at TYK2 was less than 100000 nM in each case.
Turning to `Cc1cnc(Nc2ccc(CNC(=O)OC(C)(C)C)cc2)nc1-c1cnn(CC2(CF)CC2)c1` [CC1═C(N═C(NC2═CC═C(CNC(═O)OC], the IC50 on JAK1 was less than 100 nM; against JAK2, less than 10 nM; against JAK3, less than 100 nM; against TYK2 it was less than 100 nM.
For `CC(C)(C)OC(=O)N1CC(C#N)(Cn2cc(-c3nc(Nc4ccc(C(N)=O)cc4)ncc3Cl)cn2)C1` [CC(C)(C)OC(═O)N1CC(C1)(C[N]2C═C], the IC50 was less than 100 nM on JAK1, less than 10 nM against JAK2, less than 100 nM against JAK3 and less than 100 nM on TYK2.
With `Cc1cnc(Nc2ccc(CN3CCOCC3)cc2)nc1` [CC1═C(N═C(NC2═CC═C(CN3CCOCC3)C═C2)N═C1)], the IC50 on JAK1 was less than 100 nM; on JAK2 it was less than 10 nM; against JAK3, less than 10 nM; on TYK2, less than 100 nM.
As for `Cc1cc(Nc2ncc(Cl)c(-c3cnn(CCC#N)c3)n2)on1` [CC1═NOC(═C1)NC2═NC(═C], the IC50 on JAK1 is less than 100 nM; on JAK2 it was less than 10 nM; at JAK3 it was less than 1000 nM; against TYK2, less than 100 nM.
Take `Cc1cnc(Nc2ccc(CO)c(CO)c2)nc1-c1cnn(CC2(CF)CC2)c1` [CC1═C(N═C(NC2═CC═C(CO)C]: the IC50 was less than 100 nM at JAK1, less than 10 nM against JAK2, less than 100 nM against JAK3 and less than 10 nM at TYK2.
For the molecule `N#CCCn1cc(-c2nc(NC3CCNCC3(F)F)ncc2Cl)cn1` (centres unmarked) [FC1(F)CNCCC1NC2═NC(═C], the half-inhibitory concentration (IC50) against JAK1 is more than 50000 nM; against JAK2 it was less than 100000 nM; at JAK3 it was more than 50000 nM; against TYK2 it was more than 50000 nM.
On to `N#CCC1(Cn2cc(-c3ccnc(Nc4cc(CO)ns4)n3)cn2)CC1` [OCC1═NSC(═C1)NC2═NC(═CC═N2)C3═C[N]], for which the IC50 is less than 100 nM at JAK1, less than 10 nM on JAK2, less than 100 nM on JAK3 and less than 10 nM against TYK2.
Take `COc1cnc(Nc2cc(COC(=O)c3ccccc3)ns2)nc1-c1cnn(CC2(CF)CC2)c1` [COC1═C(N═C(NC2═CC(═NS2)COC]: the IC50 against JAK1 is less than 100 nM; on JAK2 it was less than 10 nM; against JAK3 it was less than 100 nM; at TYK2 it was less than 100 nM.
Regarding `Cc1cnc(Nc2ccc(CNC(=O)[C@H](C)NC(=O)OC(C)(C)C)cc2)nc1-c1cnn(CC2(CF)CC2)c1` [C[C@H](NC(═O)OC(C)(C)C)C], the IC50 against JAK1 is less than 100 nM; against JAK2 it was less than 10 nM; against JAK3 it was less than 100 nM; against TYK2 it was less than 100 nM.
In turn, `N#CCCn1cc(-c2nc(N(C(=O)c3ccccc3)C(=O)c3ccccc3)ncc2Cl)cn1` [ClC1═C(N═C(N═C1)N(C(═O)C2═CC═CC═C2)C] yielded an IC50 against JAK2 of less than 100000 nM.
Take `Cc1cnc(Nc2cccc3c2CN(C)C3)nc1-c1cnn(CC2(Cl)CC2)c1` [CN1CC2═CC═CC(═C2C1)NC3═NC(═C]: the half-maximal inhibitory concentration (IC50) at JAK1 was less than 100000 nM; against JAK2 it was less than 1000 nM; against JAK3, less than 100000 nM.
Consider `Cc1cnc(Nc2cccc(C(N)=O)c2)nc1-c1cnn(CC2(CF)CC2)c1` [CC1═C(N═C(NC2═CC═CC(═C2)C], for which the IC50 on JAK2 was less than 10 nM; against JAK3, less than 100 nM.
The molecule `Cc1cnc(Nc2ccns2)nc1-c1cnn(CC2(CF)CC2)c1` [CC1═C(N═C(NC2═CC═NS2)N═C1)C3═C[N]] showed a half-inhibitory concentration (IC50) on JAK2 of less than 10 nM.
As for `Cc1ccc(S(=O)(=O)Nc2ncc(Cl)c(-c3cnn(CCC#N)c3)n2)cc1` [CC1═CC═C(C═C1)[S](═O)(═O)NC2═NC], the IC50 against JAK2 and against TYK2 was less than 100000 nM in each case.
